Data: ChEMBL document CHEMBL1153211, “Evaluation of secondary amide replacements in a series of CCR5 antagonists as a means to increase intrinsic membrane permeability. Part 1: Optimization of gem-disubstituted azacycles” (Bioorg Med Chem Lett, 2010)

Assays:
[1] = test system: Human immunodeficiency virus 1; experiment: Antiviral activity against HIV1 infected in human JC53-BL cells after 3 days by luciferase reporter gene assay; assay type: functional, organism-based; conditions: Human immunodeficiency virus 1, JC53BL, 72 h
[2] = target: C-C chemokine receptor type 5 (Homo sapiens, UniProt P51681); experiment: Antagonist activity at human CCR5; assay type: functional
Sequence of C-C chemokine receptor type 5 (P51681 whole entry): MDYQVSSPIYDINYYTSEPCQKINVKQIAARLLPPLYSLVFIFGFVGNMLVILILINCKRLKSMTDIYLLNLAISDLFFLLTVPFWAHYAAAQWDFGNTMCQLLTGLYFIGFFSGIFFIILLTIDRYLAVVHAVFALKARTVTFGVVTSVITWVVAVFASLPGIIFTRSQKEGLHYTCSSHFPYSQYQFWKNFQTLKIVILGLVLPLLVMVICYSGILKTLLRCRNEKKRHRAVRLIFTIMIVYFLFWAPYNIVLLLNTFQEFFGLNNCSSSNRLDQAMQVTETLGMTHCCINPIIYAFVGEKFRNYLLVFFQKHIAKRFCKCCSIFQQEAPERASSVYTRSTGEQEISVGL

[3] = Apparent permeability from apical to basolateral side of human Caco-2 cells after 21 days

IC50 [1] [nM] | IC50 [2] [nM] | Papp A→B [3] [×10⁻⁶ cm/s] | SMILES
21 | 28 | – | Cc1ncnc(C)c1C(=O)N1C[C@H]2CN(CCC3(c4ccccc4)CN(C(=O)C4CCC(F)(F)CC4)C3)C[C@H]2C1
4 | 30 | – | Cc1nc(C(F)(F)F)nc(C)c1C(=O)N1C[C@H]2CN(CCC3(c4ccccc4)CN(C(=O)C4CCC(F)(F)CC4)C3)C[C@H]2C1
12 | 38 | – | Cc1ccnc(C)c1C(=O)N1C[C@H]2CN(CCC3(c4ccccc4)CN(C(=O)C4CCC(F)(F)CC4)C3)C[C@H]2C1
2 | 17 | 0.53 | Cc1cc(C#N)nc(C)c1C(=O)N1C[C@H]2CN(CCC3(c4ccccc4)CN(C(=O)C4CCC(F)(F)CC4)C3)C[C@H]2C1
4 | 24 | 0.44 | Cc1cc(C#N)nc(C)c1C(=O)N1C[C@H]2CN(CCC3(c4ccccc4)CN(C(=O)C4CC(F)(F)C4)C3)C[C@H]2C1
61.2 | 21 | 1.72 | Cc1cc(C(F)(F)F)nc(C)c1C(=O)N1C[C@H]2CN(CCC3(c4ccccc4)CN(C(=O)C4CCC(F)(F)CC4)C3)C[C@H]2C1
4 | 22 | 1.59 | Cc1cc(C(F)(F)F)nc(C)c1C(=O)N1C[C@H]2CN(CCC3(c4ccccc4)CN(C(=O)C4CC(F)(F)C4)C3)C[C@H]2C1
59 | 38 | – | Cc1nc(C(F)(F)F)nc(C)c1C(=O)N1C[C@H]2CN(CCC3(c4ccccc4)CN(C(=O)C4CCOC4)C3)C[C@H]2C1 (stereo partly specified)
23 | 66 | – | Cc1nc(C(F)(F)F)nc(C)c1C(=O)N1C[C@H]2CN(CCC3(c4ccccc4)CN(C(=O)C4CC(F)(F)C4)C3)C[C@H]2C1
39 | 30 | – | Cc1ncnc(C)c1C(=O)N1C[C@H]2CN(CCC3(c4ccccc4)CN(C(=O)C4CC(F)(F)C4)C3)C[C@H]2C1
40 | 27 | – | Cc1ncnc(C)c1C(=O)N1C[C@H]2CN(CCC3(c4ccccc4)CN(S(=O)(=O)C4CCCC4)C3)C[C@H]2C1
– | 242 | – | Cc1ncnc(C)c1C(=O)N1C[C@H]2CN(CCC3(c4ccccc4)CCN(C(=O)C(C)(C)C)C3)C[C@H]2C1 (stereo partly specified)
447 | – | – | Cc1ncnc(C)c1C(=O)N1C[C@H]2CN(CCC3(c4cccc(F)c4)CCN(C(=O)CC(C)(C)C)CC3)C[C@H]2C1
– | 167 | – | Cc1ncnc(C)c1C(=O)N1C[C@H]2CN(CCC3(c4cccc(F)c4)CCN(C(=O)C(C)(C)CO)CC3)C[C@H]2C1
18 | 15 | 2.73 | Cc1cc(C#N)nc(C)c1C(=O)N1C[C@H]2CN(CCC3(c4cccc(F)c4)CCN(C(=O)C(C)(C)C)CC3)C[C@H]2C1
24 | 46 | 2.55 | Cc1cc(C#N)nc(C)c1C(=O)N1C[C@H]2CN(CCC3(c4ccccc4)CCN(C(=O)C4CCCC4)C3)C[C@H]2C1 (stereo partly specified)
67 | 59 | 2.98 | Cc1ncnc(C)c1C(=O)N1C[C@H]2CN(CCC3(c4cccc(F)c4)CCN(C(=O)C(C)(C)C)CC3)C[C@H]2C1
– | 69 | – | Cc1cc(C#N)nc(C)c1C(=O)N1C[C@H]2CN(CCC3(c4ccccc4)CCN(C(=O)C(C)(C)C)C3)C[C@H]2C1 (stereo partly specified)
60 | 67 | – | Cc1ncnc(C)c1C(=O)N1C[C@H]2CN(CCC3(c4ccccc4)CN(C(=O)C4CCCC4)C3)C[C@H]2C1
> 400 | 102 | – | Cc1ncnc(C)c1C(=O)N1C[C@H]2CN(CCC3(c4cccc(F)c4)CCN(C(=O)C(C)C)CC3)C[C@H]2C1
351 | 116 | – | Cc1ncnc(C)c1C(=O)N1C[C@H]2CN(CCC3(c4ccccc4)CCN(C(=O)C4CCCC4)C3)C[C@H]2C1 (stereo partly specified)
55 | 60 | – | Cc1ccnc(C)c1C(=O)N1C[C@H]2CN(CCC3(c4ccccc4)CN(C(=O)C4CC(F)(F)C4)C3)C[C@H]2C1
53 | 28 | – | Cc1ncnc(C)c1C(=O)N1C[C@H]2CN(CCC3(c4ccccc4)CN(C(=O)CC4CCCC4)C3)C[C@H]2C1
204 | 55 | – | Cc1ncnc(C)c1C(=O)N1C[C@H]2CN(CCC3(c4ccccc4)CN(C(=O)C4CCOC4)C3)C[C@H]2C1 (stereo partly specified)
– | > 500 | – | CC(=O)N1CCC(CCN2C[C@@H]3CN(C(=O)c4c(C)ncnc4C)C[C@@H]3C2)(c2cccc(F)c2)CC1
130 | 56 | – | Cc1ncnc(C)c1C(=O)N1C[C@H]2CN(CCC3(c4ccccc4)CN(C(=O)C(C)(C)CO)C3)C[C@H]2C1
77 | 27 | – | Cc1ncnc(C)c1C(=O)N1C[C@H]2CN(CCC3(c4ccccc4)CN(C(=O)C(C)(C)C)C3)C[C@H]2C1
